Among the data in patent US5681708A, “Method for screening compositions” (SmithKline Beecham Corporation, priority 1994, dated 1997) are IC50 values, retold here.

In the experiment the target is T1, CD4/Lck protein complex (Homo sapiens, UniProt P01730+P06239).
T1 construct: Detergent extracts of CEM cells were prepared by pelleting cells; endogenous in cells; host or cells: CEM (ATCC CCL 119), acute lymphoblastic CD4-positive human T-cell line; diluted detergent (NP-40) extract
As to the kind of experiment: CD4/Lck Dissociation Assay (ELISA-based, CEM cell extracts). It counts as biochemical. The conditions noted are these: CEM cell detergent extract, 30 min at 30° C., OKT4 capture, C-Lck detection; read-out: IC50, concentration of test compound which dissociated 50% of the target CD4/Lck protein complex relative to controls. As to the method: Acute lymphoblastic CD4-positive human T-cells, from the T-cell line CEM (ATCC CCL 119), were grown in suspension in RPMI-1640 medium supplemented with 10% heat-inactivated fetal calf serum at 37° C. to a cell density of 0.8-1.2×10^6 cells/mi. Detergent extracts of CEM cells were prepared by pelleting cells, washing with Dulbecco's phosphate buffered saline without Ca and Mg (D-PBS) at 4° C. and resuspending the cell pellet in sufficient freshly prepared extraction buffer (50 mM Tris, pH 8.0, 150 mM NaCl, 2 mM EDTA, 50 mM NaF, 3% NONIDET™ P-40, 0.1 mMNa vanadate, 0.1 mM PMSF, 10 ug/ml leupeptin, 10 ug/ml aprotinin, 10 ug/ml TLCK) to yield 1.0×10^8 cells in a volume of 1 ml. The cell pellet was resuspended gently on ice until a homogeneous suspension was obtained and kept on ice for at least 30 min with occasional vortexing. The suspension was then centrifuged at 29,000 xg for 30 min at 4° C.; the clear cell extract supernatant was transferred to a clean tube and placed on ice.
Cell extracts were diluted 16-fold with ice-cold PBS (0.1M phosphate, 0.15M NaCl, ph 7.4) containing 0.5% (w/v) BSA and 0.05% (v/v) TWEEN™ 20 (PBT) to yield 6.25×10^6 cell equivalents/mi. Candidate dissociative agents were diluted to 1 mg/ml with ddH2 O and 10 ul were added to Corning plate wells. A 90 ul volume of diluted cell extract (5.6×10^5 cell equivalents) were added to the Corning plate wells containing an organic solvent to provide a final candidate agent concentration of 0.1 mg/ml. Exemplary organic solvents are DMSO and ethanol. The resulting final concentration of organic solvent was 1%. The plates were incubated for 30 min at 30° C. in a water bath and then transferred to ice. Alternatively, diluted cell extracts can be incubated with candidate agents for 2 to 3 hours at room temperature (22°-25° C.).
ELISA assay plate wells were prepared by coating MaxiSorp™ (Nunc, round-bottom wells) or TITERTEK™ plate wells overnight at 4° C. with 100 ul of 2.5 ug/ml OKT4 CD4 mAb in 0.1M NaHCO3, pH 9.2. TITERTEK™ and Corning ELISA plates were also successfully used. Other CD4 monoclonal antibodies which bind to portions of the V1 domain in the extracellular portion of the CD4 molecule may also be used. All CD4 monoclonal antibodies were either purchased from Ortho or purified from specific hybridomas available from the ATCC. OKT4 hybridoma is available under ATCC CRL 8002.
When ready for use, the coating solution was removed and the wells rinsed 3× with PBS. A blocking step was performed by adding 0.3 ml PBT per well and incubating at least 30 min at 37° C. All PBT was removed and 50 ul of diluted cell extracts were added to the test wells. 50 ul of extraction buffer/PBT (1:15, v/v) were added to the assay blank wells. The plates were sealed and incubated 1 hour at 4° C. […]

T1 sequence (P06239 2-509 limits assumed, other chains not shown): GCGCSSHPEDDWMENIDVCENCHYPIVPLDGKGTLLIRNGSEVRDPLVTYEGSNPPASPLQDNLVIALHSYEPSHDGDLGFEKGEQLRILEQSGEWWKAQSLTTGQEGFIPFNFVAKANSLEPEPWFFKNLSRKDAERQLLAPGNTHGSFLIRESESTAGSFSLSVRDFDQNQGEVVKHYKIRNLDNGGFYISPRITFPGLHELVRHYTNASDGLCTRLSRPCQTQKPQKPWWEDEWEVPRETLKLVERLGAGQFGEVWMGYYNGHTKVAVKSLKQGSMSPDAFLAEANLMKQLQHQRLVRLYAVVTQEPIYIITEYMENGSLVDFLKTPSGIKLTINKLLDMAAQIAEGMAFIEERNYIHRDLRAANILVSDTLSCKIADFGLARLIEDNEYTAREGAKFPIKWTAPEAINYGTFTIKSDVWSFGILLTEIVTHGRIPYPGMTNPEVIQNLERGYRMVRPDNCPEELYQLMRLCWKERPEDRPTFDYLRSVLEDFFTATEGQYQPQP

Consider “5,7-dihydroxy-4'-methoxyisoflavone [Genistein]”, for which the IC50 was more than 200 µM.

Regarding `CCCCCCCCCCCC1N=C(N)N2CCCC2=C1C(=O)OCCCCNC(=N)N` (stereo not shown) [Crambine A], the IC50 is less than 100 µM.

Regarding `N#CC(C#N)=Cc1ccc(O)c(O)c1` [LC-A23, 2-cyano, 3-(3,4-dihydroxyphenyl)acrylonitrile], the IC50 is more than 500 µM.

With `N#C/C(=C\c1ccc(O)c(O)c1)C(N)=O` [LC-A46, trans-2-cyano, 3-(3,4-dihydroxyphenyl)acrylamide], the IC50 stood at 300 µM.
